In US5629324A, “Thrombin inhibitors” (Merck & Co., Inc., priority 1995, dated 1997):

Target: T1, human a-thrombin (Homo sapiens, UniProt P00734)
T1 construct: human a-thrombin
Assay: Proteinase inhibition, human a-thrombin
Assay type: biochemical
Conditions: 25° C., 0.05M TRIS buffer pH 7.4, 0.15M NaCl, 0.1% PEG
Procedure: Assays of human a-thrombin and bovine trypsin were performed at 25° C. in 0.05M TRIS buffer pH 7.4, 0.15M NaCl, 0.1% PEG. Trypsin assays also contained 1 mM CaCl2.
Concentrations of stock solutions of Z-GPR-afc were determined from measurements of absorbance at 380 nm of the 7-amino-4-trifluoromethyl coumarin produced upon complete hydrolysis of an aliquot of the stock solution by thrombin.
Times required to achieve equilibration between enzyme and inhibitor were determined in control experiments. Initial velocities of product formation in the absence (Vo) or presence of inhibitor (Vi) were measured. Assuming competitive inhibition, and that unity is negligible compared Km /[S], […] (where [S], [I], and e respectively represent the total concentrations, of substrate, inhibitor and enzyme), the equilibrium constant (Ki) for dissociation of the inhibitor from the enzyme can be obtained from the dependence of Vo /Vi on [I] shown in equation 1.

Compound | Ki [nM]
N=C(N)N1CCC(CNC(=O)[C@@H]2CCCN2C(=O)CC(c2ccccc2)c2ccccc2)CC1 | 2.7
N=C(N)N1CCC(CNC(=O)[C@@H]2CCCN2C(=O)C2(O)c3ccccc3-c3ccccc32)CC1 | 1.1
